These molecules were tested against T1, human LPA1 (Homo sapiens, UniProt Q92633) (assay: LPA1 functional antagonist assay (LPA-induced calcium flux in CHO cells overexpressing human LPA1)). Details: inhibition of calcium flux induced by 10 nM LPA, CHO cells overexpressing human LPA1; read-out: hLPA1 IC50.
T1 construct: expressed in transfected cells; host or cells: Chinese hamster ovary (CHO) cells
Assay type: cell-based
How it was run: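 CHO cells overexpressing human LPA1, dye-loaded 30 min at 37 °C, then given compound (0.08 nM–5 μM final, 0.5% DMSO) in HBSS/20 mM HEPES/0.1% fatty-acid-free BSA for 20 min at room temperature before 10 nM LPA. IC50 as 50% inhibition of LPA-evoked calcium flux, 4-parameter logistic fit.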

T1 sequence (Q92633 whole entry): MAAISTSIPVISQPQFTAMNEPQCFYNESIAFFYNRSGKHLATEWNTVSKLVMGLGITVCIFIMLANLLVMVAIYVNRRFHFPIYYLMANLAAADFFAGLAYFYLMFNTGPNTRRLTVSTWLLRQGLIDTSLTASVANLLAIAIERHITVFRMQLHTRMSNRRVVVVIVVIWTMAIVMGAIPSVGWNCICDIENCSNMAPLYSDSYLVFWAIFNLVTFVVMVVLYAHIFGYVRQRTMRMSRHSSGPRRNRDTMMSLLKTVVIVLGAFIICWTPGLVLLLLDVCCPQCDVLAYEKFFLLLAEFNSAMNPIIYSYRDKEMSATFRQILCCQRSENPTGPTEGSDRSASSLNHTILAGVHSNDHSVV

Structure (SMILES)	IC50 [nM]
COc1cccc(Cc2nnn(Cc3c(-c4ccc(O[C@H]5CCC[C@H](C(=O)O)C5)c(C)n4)nnn3C)n2)c1 [Example 314, (1S,3S)-3-({6-[5-({5-[(3-methoxy-phenyl)methyl]-2H-1,2,3,4-tetrazol-2-yl}methyl)-1-methyl-1H-1,2,3-triazol-4-yl]-2-methylpyridin-3-yl}oxy)cyclohexane-1-carboxylic acid]	12
CCCCc1nnnn1Cc1c(-c2ccc(O[C@H]3CCC[C@H](C(=O)O)C3)c(C)n2)nnn1C [Example 112]	176
Cc1nc(-c2nnn(C)c2CNc2noc(CC3CCC3)n2)ccc1O[C@H]1CCC[C@H](C(=O)O)C1 [Example 72]	4
CC(C)c1nc(NCc2c(-c3ccc(O[C@H]4CCC[C@H](C(=O)O)C4)cn3)nnn2C)ns1 [Example 137]	320
Cc1nc(-c2nnn(C)c2Cc2nc(Cc3ccccc3)no2)ccc1O[C@H]1CCC[C@H](C(=O)O)C1 [Example 244, (1S,3S)-3-((6-(5-((3-benzyl-1,2,4-oxadiazol-5-yl)methyl)-1-methyl-1H-1,2,3-triazol-4-yl)-2-methylpyridin-3-yl)oxy)cyclohexane-1-carboxylic acid]	40
CCOCc1nc(NCc2c(-c3ccc(O[C@H]4CCC[C@H](C(=O)O)C4)c(C)n3)nnn2C)no1 [Example 147]	45
Cc1nc(-c2nnn(C)c2CNc2noc(C3(F)CCC3)n2)ccc1O[C@H]1CCC[C@H](C(=O)O)C1 [Example 148]	19
CCCCNc1nnn(Cc2c(-c3ccc(O[C@H]4CCC[C@H](C(=O)O)C4)c(C)n3)nnn2C)n1 [Example 362, (1S,3S)-3-((6-(5-((5-(butylamino)-2H-tetrazol-2-yl)methyl)-1-methyl-1H-1,2,3-triazol-4-yl)-2-methyl-pyridin-3-yl)oxy)cyclohexane-1-carboxylic acid]	316
CCCCn1cnc(NCc2c(-c3ccc(O[C@H]4CCC[C@H](C(=O)O)C4)c(C)n3)nnn2C)n1 [Example 150]	68.2
Cc1nc(-c2nnn(C)c2CNc2nc(C3CCC3)ns2)ccc1O[C@H]1CCC[C@H](C(=O)O)C1 [Example 99]	73
CCCCc1cn(Cc2c(-c3ccc(O[C@H]4CCC[C@H](C(=O)O)C4)c(C#N)n3)nnn2C)nn1 [Example 90]	78
Cc1nc(-c2nnn(C)c2CNc2nc(C3CC3)ns2)ccc1O[C@H]1CCC[C@H](C(=O)O)C1 [Example 103]	510
Cc1nc(-c2nnn(C)c2CNc2nc(C)n(-c3ccccc3)n2)ccc1O[C@H]1CCC[C@H](C(=O)O)C1 [Example 37]	46
CCOCc1noc(Cc2c(-c3ccc(O[C@H]4CCC[C@H](C(=O)O)C4)c(C)n3)nnn2C)n1 [Example 249, (1S,3S)-3-((6-(5-((3-(ethoxymethyl)-1,2,4-oxadiazol-5-yl)methyl)-1-methyl-1H-1,2,3-triazol-4-yl)-2-methylpyridin-3-yl)oxy)cyclohexane-1-carboxylic acid]	76
Cc1nc(-c2nnn(C)c2Cn2ncnc2-c2ccccc2)ccc1O[C@H]1CCC[C@H](C(=O)O)C1 [Example 207, (1S,3S)-3-((2-Methyl-6-(1-methyl-5-((5-phenyl-1H-1,2,4-triazol-1-yl)methyl)-1H-1,2,3-triazol-4-yl)pyridin-3-yl)oxy)cyclohexane-1-carboxylic acid]	213
Cc1cc(C)n(Cc2nnn(Cc3c(-c4ccc(O[C@H]5CCC[C@H](C(=O)O)C5)c(C)n4)nnn3C)n2)n1 [Example 301, (1S,3S)-3-({6-[5-({5-[(3,5-dimethyl-1H-pyrazol-1-yl)methyl]-2H-1,2,3,4-tetrazol-2-yl}methyl)-1-methyl-1H-1,2,3-triazol-4-yl]-2-methylpyridin-3-yl}oxy)cyclohexane-1-carboxylic acid]	963
Cc1nc(-c2nnn(C)c2Cc2noc(CCC(F)(F)F)n2)ccc1O[C@H]1CCC[C@H](C(=O)O)C1 [Example 240]	61
Cc1nc(-c2nnn(C)c2CNc2noc(CCC(C)F)n2)ccc1O[C@H]1CCC[C@H](C(=O)O)C1 (some centres unmarked) [Example 201]	32

Structure (SMILES)	IC50 [nM]
Cc1nc(-c2nnn(C)c2COc2cc(-c3ccccn3)on2)ccc1O[C@H]1CCC[C@H](C(=O)O)C1 [Example 133]	208
Cc1nc(-c2nnn(C)c2CNc2noc(C3CC(C)C3)n2)ccc1O[C@H]1CCC[C@H](C(=O)O)C1 (some centres unmarked) [Example 198]	28
CCCOCc1nnnn1Cc1c(-c2ccc(O[C@H]3CCC[C@H](C(=O)O)C3)c(C)n2)nnn1C [Example 305, (1S,3S)-3-{[2-methyl-6-(1-methyl-5-{[5-(propoxymethyl)-1H-1,2,3,4-tetrazol-1-yl]methyl}-1H-1,2,3-triazol-4-yl)pyridin-3-yl]oxy}cyclohexane-1-carboxylic acid]	243
Cc1nc(-c2nnn(C)c2Cn2cc(COc3ccccc3)nn2)ccc1O[C@H]1CCC[C@H](C(=O)O)C1 [Example 83]	135
Cc1nc(-c2nnn(C)c2CNc2noc(CCC3CC3)n2)c(F)cc1O[C@H]1CCC[C@H](C(=O)O)C1 [Example 279, (1S,3S)-3-((6-(5-(((5-(2-cyclopropyl-ethyl)-1,2,4-oxadiazol-3-yl)amino)methyl)-1-methyl-1H-1,2,3-triazol-4-yl)-5-fluoro-2-methylpyridin-3-yl)oxy)cyclohexane-1-carboxylic acid]	51
Cc1nc(-c2nnn(C)c2CNc2ncc(-c3ccccn3)o2)ccc1O[C@H]1CCC[C@H](C(=O)O)C1 [Example 20]	99
CCc1nc(-c2nnn(C)c2Cn2nnc(CC3CC3)n2)ccc1O[C@H]1CCC[C@H](C(=O)O)C1 [Example 307, (1S,3S)-3-{[6-(5-{[5-(cyclopropyl-methyl)-2H-1,2,3,4-tetrazol-2-yl]methyl}-1-methyl-1H-1,2,3-triazol-4-yl)-2-ethylpyridin-3-yl]oxy}cyclohexane-1-carboxylic acid]	32
Cc1nc(-c2nnn(C)c2Cn2cc(C(C)C)nn2)ccc1O[C@H]1CCC[C@H](C(=O)O)C1 [Example 82]	821
Cc1nc(-c2nnn(C)c2CNc2noc([C@H]3C[C@](C)(F)C3)n2)ccc1O[C@H]1CCC[C@H](C(=O)O)C1 [Example 192]	52
Cn1nnc(-c2ccc(O[C@H]3CCC[C@H](C(=O)O)C3)c(C#N)n2)c1Cn1cc(Cc2ccccc2)nn1 [Example 91]	109
Cc1nc(-c2nnn(C)c2CNc2noc(CCC(C)F)n2)ccc1O[C@H]1CCC[C@H](C(=O)O)C1 (some centres unmarked) [Example 200]	31
CCOc1nc(NCc2c(-c3ccc(O[C@H]4CCC[C@H](C(=O)O)C4)c(C)n3)nnn2C)ns1 [Example 5]	28
Cc1nc(-c2nnn(C)c2CNc2noc(C3CC3C)n2)ccc1O[C@H]1CCC[C@H](C(=O)O)C1 (some centres unmarked) [Example 180]	42.1
Cc1nc(-c2nnn(C)c2CNc2nnc(-c3ccccc3)o2)ccc1O[C@H]1CCC[C@H](C(=O)O)C1 [Example 49]	180
Cc1nc(-c2nnn(C)c2CNc2cc(C(C)(C)C)on2)ccc1O[C@H]1CCC[C@H](C(=O)O)C1 [Example 169]	63
Cc1nc(-c2nnn(C)c2CNc2cnn(CC(C)C)n2)ccc1O[C@H]1CCC[C@H](C(=O)O)C1 [Example 22, (1 S,3 S)-3-((6-(5-(((2-isobutyl-2H-1,2,3-triazol-4-yl)amino)methyl)-1-methyl-1H-1,2,3-triazol-4-yl)-2-methylpyridin-3-yl)oxy)cyclohexane-1-carboxylic acid]	42
Cc1nc(-c2nnn(C)c2Cn2nnnc2Cc2ccc(Cl)cc2)ccc1O[C@H]1CCC[C@H](C(=O)O)C1 [Example 325, (1S,3S)-3-((6-(5-((5-(4-chloro-benzyl)-1H-tetrazol-1-yl)methyl)-1-methyl-1H-1,2,3-triazol-4-yl)-2-methylpyridin-3-yl)oxy)cyclo-hexane-1-carboxylic acid]	167

Same assay, conditions: read-out: hLPA1 IC50

Structure (SMILES)	IC50 [nM]
COCCOc1nnn(Cc2c(-c3ccc(O[C@H]4CCC[C@H](C(=O)O)C4)c(C)n3)nnn2C)n1 [Example 407, (1S,3S)-3-{[6-(5-{[5-(2-methoxy-ethoxy)-2H-1,2,3,4-tetrazol-2-yl]methyl}-1-methyl-1H-1,2,3-triazol-4-yl)-2-methylpyridin-3-yl]oxy}cyclohexane-1-carboxylic acid]	142
Cc1nc(-c2nnn(C)c2CNc2nnn(Cc3ccccc3)n2)ccc1O[C@H]1CCC[C@H](C(=O)O)C1 [Example 391, (1S,3S)-3-((6-(5-(((2-benzyl-2H-tetrazol-5-yl)amino)methyl)-1-methyl-1H-1,2,3-triazol-4-yl)-2-methylpyridin-3-yl)oxy)cyclo-hexane-1-carboxylic acid]	23
CCCn1nnc(NCc2c(-c3ccc(O[C@H]4CCC[C@H](C(=O)O)C4)c(C)n3)nnn2C)n1 [Example 387, (1S,3S)-3-((2-methyl-6-(1-methyl-5-(((2-propyl-2H-tetrazol-5-yl)amino)methyl)-1H-1,2,3-triazol-4-yl)pyridin-3-yl)oxy)cyclohexane-1-carboxylic acid]	285
C=CCn1nnc(NCc2c(-c3ccc(O[C@H]4CCC[C@H](C(=O)O)C4)c(C)n3)nnn2C)n1 [Example 392, (1S,3S)-3-((6-(5-(((2-allyl-2H-tetrazol-5-yl)amino)methyl)-1-methyl-1H-1,2,3-triazol-4-yl)-2-methylpyridin-3-yl)oxy)cyclo-hexane-1-carboxylic acid]	167
Cc1nc(-c2nnn(C)c2CNc2nnn(-c3ccccc3)n2)ccc1O[C@H]1CCC[C@H](C(=O)O)C1 [Example 389, (1S,3S)-3-((2-methyl-6-(1-methyl-5-(((2-phenyl-2H-tetrazol-5-yl)amino)methyl)-1H-1,2,3-triazol-4-yl)pyridin-3-yl)oxy)cyclohexane-1-carboxylic acid]	84
Cc1nc(-c2nnn(C)c2Cc2nnn(Cc3ccccc3)n2)ccc1O[C@H]1CCC[C@H](C(=O)O)C1 [Example 402, (1S,3S)-3-[(6-{5-[(2-benzyl-2H-1,2,3,4-tetrazol-5-yl)methyl]-1-methyl-1H-1,2,3-triazol-4-yl}-2-methylpyridin-3-yl)oxy]cyclo-hexane-1-carboxylic acid]	47

Reference: patent US11319315B2, “Cyclohexyl acid triazole azoles as LPA antagonists” (BRISTOL-MYERS SQUIBB COMPANY, priority 2017, dated 2022)
